Values of other authors in patent US11400098B2, “Method of treating microbial infections” (priority 2011, dated 2022).

Test system: S. epidermidis
Conditions: background statement

Question: Which “effect on growth of S. epidermidis” value does the source give for `O=C(OOC(=O)c1ccccc1)c1ccccc1` [BPO, benzoyl peroxide] here?
Answer: Its value is “strongly suppresses the growth”.
